In US6960614B2, “Oxygenated esters of 4-lodo phenylamino benzhydroxamic acids” (Warner-Lambert Company, priority 2000, dated 2005):
Structures can show the parent of a compound that is named as a salt.

System: MEK
Experiment: Cellular Assay for Measuring MEK Inhibition (inhibition of ERK phosphorylation in C26 cells, Western blot)
Type: cell-based, murine
Settings: for IC50: inhibition of ERK phosphorylation in murine colon 26 (C26) carcinoma cells, determined graphically from dose response curve; for % Inhibition @ 0.1 μM / % Inhibition @ 1 μM: ERK phosphorylation in C26 cells
Method: The evaluation of the compounds as MEK inhibitors was performed in an assay that measures their ability to inhibit phosphorylation of MAP kinase […]) in murine colon 26 (C26) carcinoma cells. Since ERK1 and ERK2 represent the only known substrates for MEK, measurement of inhibition of ERK phosphorylation in cells provides direct readout of cellular MEK inhibition by the compounds of the invention. Briefly, the assay involves treating exponentially growing C26 cells with varying concentrations of the test compound (or vehicle control) for […] at 37° C. Cells are then rinsed free of compound/vehicle and lysed in a solution containing 70 mM NaCl, 50 mM glycerol phosphate, 10 mM HEPES, pH 7.4, 1% Triton X-100, 1 mM Na3VO4, 100 μM PMSF, 10 μM leupeptin and 10 μM pepstatin. Supernatants are then subjected to gel electrophoresis and Western blotting using a primary antibody recognizing dually phosphorylated ERK1 and ERK2. To evaluate total MAPK levels, blots were subsequently ‘stripped’ and re-probed with a 1:1 mixture of polyclonal antibodies recognizing unphosphorylated ERK1 and ERK2.

Compound | IC50 [µM] | % Inhibition @ 0.1 μM [%] | % Inhibition @ 1 μM [%]
O=C(NOCC(O)CO)c1cc(Br)c(F)c(F)c1Nc1ccc(I)cc1F (stereo not shown) [Example 40, 5-Bromo-N-(2,3-dihydroxy-propoxy)-3,4-difluoro-2-(2-fluoro-4-iodo-phenylamino)-benzamide] | 0.0014 |  | 
O=C(NOC[C@H](O)CO)c1cc(Cl)c(F)c(F)c1Nc1ccc(I)cc1F [Example 53] | 0.0012 |  | 
CN(OCCO)C(=O)c1ccc(F)cc1Nc1ccc(I)cc1Cl [Example 81, 2-(2-Chloro-4-iodo-phenylamino)-4-fluoro-N-(2-hydroxy-ethoxy)-N-methyl-benzamide] | 0.134 |  | 
CC(=O)OCCONC(=O)c1cc(F)c(F)c(F)c1Nc1ccc(I)cc1C [Example 82, Acetic acid 2-({1-[3,4,5-trifluoro-2-(4-iodo-2-methyl-phenylamino)-phenyl]-methanoyl}-aminooxy)-ethyl ester] | > 1 |  | 
Cc1cc(I)ccc1Nc1c(C(=O)NOCC(O)CO)cc(F)c(F)c1F (stereo not shown) [Example 90, N-(2,3-Dihydroxy-propoxy)-3,4,5-trifluoro-2-(4-iodo-2-methyl-phenylamino)-benzamide] | 0.04 |  | 
Cc1cc(I)ccc1Nc1c(C(=O)NOCC(O)CO)cc(Br)c(F)c1F (stereo not shown) [Example 91, 5-Bromo-N-(2,3-dihydroxy-propoxy)-3,4-difluoro-2-(4-iodo-2-methyl-phenylamino)-benzamide] |  | 89.4 | 98.9
O=C(NOCCC(O)CO)c1ccc(F)c(F)c1Nc1ccc(I)cc1Cl (stereo not shown) [Example 92, 2-(2-Chloro-4-iodo-phenylamino)-N-(3,4-dihydroxy-butoxy)-3,4-difluoro-benzamide] |  | 51.8 | 92.4
O=C(NOCCC(O)CO)c1cc(F)c(F)c(F)c1Nc1ccc(I)cc1Cl (stereo not shown) [Example 93, 2-(2-Chloro-4-iodo-phenylamino)-N-(3,4-dihydroxy-butoxy)-3,4,5-trifluoro-benzamide] |  | 4 | 79.1
O=C(NOCCC(O)CO)c1cc(Br)c(F)c(F)c1Nc1ccc(I)cc1Cl (stereo not shown) [Example 94, 5-Bromo-2-(2-chloro-4-iodo-phenylamino)-N-(3,4-dihydroxy-butoxy)-3,4-difluoro-benzamide] | 0.28 |  | 
Cc1cc(I)ccc1Nc1c(C(=O)NOCCC(O)CO)ccc(F)c1F (stereo not shown) [Example 95, N-(3,4-Dihydroxy-butoxy)-3,4-difluoro-2-(4-iodo-2-methyl-phenylamino)-benzamide] | 0.19 |  | 
Cc1cc(I)ccc1Nc1c(C(=O)NOCCC(O)CO)cc(F)c(F)c1F (stereo not shown) [Example 96, N-(3,4-Dihydroxy-butoxy)-3,4,5-trifluoro-2-(4-iodo-2-methyl-phenylamino)-benzamide] |  | 35 | 87.1
Cc1cc(I)ccc1Nc1c(C(=O)NOCCC(O)CO)cc(Br)c(F)c1F (stereo not shown) [Example 97, 5-Bromo-N-(3,4-dihydroxy-butoxy)-3,4-difluoro-2-(4-iodo-2-methyl-phenylamino)-benzamide] |  | 30.1 | 91.9
CCC(O)CONC(=O)c1ccc(F)c(F)c1Nc1ccc(I)cc1Cl (stereo not shown) [Example 104, 2-(2-Chloro-4-iodo-phenylamino)-3,4-difluoro-N-(2-hydroxy-butoxy)-benzamide] | 0.024 |  | 
CCC(O)CONC(=O)c1cc(F)c(F)c(F)c1Nc1ccc(I)cc1Cl (stereo not shown) [Example 105, 2-(2-Chloro-4-iodo-phenylamino)-3,4,5-trifluoro-N-(2-hydroxy-butoxy)-benzamide] |  | 3.3 | 71.3
CCC(O)CONC(=O)c1cc(F)c(F)c(F)c1Nc1ccc(I)cc1C (stereo not shown) [Example 106, 3,4,5-Trifluoro-N-(2-hydroxy-butoxy)-2-(4-iodo-2-methyl-phenylamino)-benzamide] |  | 13.2 | 81.6
CCC(O)CONC(=O)c1cc(Br)c(F)c(F)c1Nc1ccc(I)cc1Cl (stereo not shown) [Example 107, 5-Bromo-2-(2-chloro-4-iodo-phenylamino)-3,4-difluoro-N-(2-hydroxy-butoxy)-benzamide] | 0.076 |  | 
CCC(O)CONC(=O)c1cc(Br)c(F)c(F)c1Nc1ccc(I)cc1C (stereo not shown) [Example 108, 5-Bromo-3,4-difluoro-N-(2-hydroxy-butoxy)-2-(4-iodo-2-methyl-phenylamino)-benzamide] |  | 74 | 94.6
CCC(O)CONC(=O)c1ccc(F)c(F)c1Nc1ccc(I)cc1C (stereo not shown) [Example 109, 3,4-Difluoro-N-(2-hydroxy-butoxy)-2-(4-iodo-2-methyl-phenylamino)-benzamide] | 0.038 |  | 
CCC(O)CONC(=O)c1cc(Cl)c(F)c(F)c1Nc1ccc(I)cc1C (stereo not shown) [Example 111, 5-Chloro-3,4-difluoro-N-(2-hydroxy-butoxy)-2-(4-iodo-2-methyl-phenylamino)-benzamide] |  | 78 | 93.4
CCC(O)CONC(=O)c1ccc(F)c(F)c1Nc1ccc(I)cc1F (stereo not shown) [Example 112, 3,4-Difluoro-2-(2-fluoro-4-iodo-phenylamino)-N-(2-hydroxy-butoxy)-benzamide] |  | 95.2 | 95.5
CCC(O)CONC(=O)c1cc(Br)c(F)c(F)c1Nc1ccc(I)cc1F (stereo not shown) [Example 113, 5-Bromo-3,4-difluoro-2-(2-fluoro-4-iodo-phenylamino)-N-(2-hydroxy-butoxy)-benzamide] |  | 89.9 | 94.6

Second part, led by results:

IC50 [µM] | Compound | % Inhibition @ 0.1 μM [%] | % Inhibition @ 1 μM [%]
0.002 | O=C(NOCCO)c1ccc(F)cc1Nc1ccc(I)cc1Cl [Example 4, 2-(2-Chloro-4-iodo-phenylamino)-4-fluoro-N-(2-hydroxy-ethoxy)-benzamide] |  | 
0.003 | Cc1cc(I)ccc1Nc1cc(F)ccc1C(=O)NOCCO [Example 5, 4-Fluoro-N-(2-hydroxy-ethoxy)-2-(4-iodo-2-methyl-phenylamino)-benzamide] |  | 
0.045 | O=C(NOCCO)c1cc(F)c(F)cc1Nc1ccc(I)cc1Cl [Example 17, 2-(2-Chloro-4-iodo-phenylamino)-4,5-difluoro-N-(2-hydroxy-ethoxy)-benzamide] |  | 
0.0044 | O=C(NOCCCO)c1ccc(F)c(F)c1Nc1ccc(I)cc1F [Example 32, 3,4-Difluoro-2-(2-fluoro-4-iodo-phenylamino)-N-(3-hydroxy-propoxy)-benzamide] |  | 
0.24 | O=C(NOCCNc1ccccc1)c1ccc(F)c(F)c1Nc1ccc(I)cc1Cl [Example 77, 2-(2-Chloro-4-iodo-phenylamino)-3,4-difluoro-N-(2-phenylamino-ethoxy)-benzamide] |  | 
0.02 | CNCCONC(=O)c1ccc(F)c(F)c1Nc1ccc(I)cc1F [Example 79, 3,4-Difluoro-2-(2-fluoro-4-iodo-phenylamino)-N-(2-methylamino-ethoxy)-benzamide, hydrochloride salt] |  | 
0.49 | Cc1cc(I)ccc1Nc1c(C(=O)NOCCNCC(F)(F)F)ccc(F)c1F [Example 80, 3,4-Difluoro-2-(4-iodo-2-methyl-phenylamino)-N-[2-(2,2,2-trifluoro-ethylamino)-ethoxy]-benzamide; hydrochloride] |  | 
0.019 | O=C(NOCC(O)CO)c1ccc(F)c(F)c1Nc1ccc(I)cc1Cl (stereo not shown) [Example 86, 2-(2-Chloro-4-iodo-phenylamino)-N-(2,3-dihydroxy-propoxy)-3,4-difluoro-benzamide] |  | 
0.025 | O=C(NOCC(O)CO)c1cc(F)c(F)c(F)c1Nc1ccc(I)cc1Cl (stereo not shown) [Example 87, 2-(2-Chloro-4-iodo-phenylamino)-N-(2,3-dihydroxy-propoxy)-3,4,5-trifluoro-benzamide] |  | 
0.11 | O=C(NOCC(O)CO)c1cc(Br)c(F)c(F)c1Nc1ccc(I)cc1Cl (stereo not shown) [Example 88, 5-Bromo-2-(2-chloro-4-iodo-phenylamino)-N-(2,3-dihydroxy-propoxy)-3,4-difluoro-benzamide] |  | 
0.012 | Cc1cc(I)ccc1Nc1c(C(=O)NOCC(O)CO)ccc(F)c1F (stereo not shown) [Example 89, N-(2,3-Dihydroxy-propoxy)-3,4-difluoro-2-(4-iodo-2-methyl-phenylamino)-benzamide] |  | 
0.011 | O=C(NOCCCO)c1cc(Br)c(F)c(F)c1Nc1ccc(I)cc1Cl [Example 98, 5-Bromo-2-(2-chloro-4-iodo-phenylamino)-3,4-difluoro-N-(3-hydroxy-propoxy)-benzamide] |  | 
0.018 | O=C(NOCCCO)c1ccc(F)c(F)c1Nc1ccc(I)cc1Cl [Example 99, 2-(2-Chloro-4-iodo-phenylamino)-3,4-difluoro-N-(3-hydroxy-propoxy)-benzamide] |  | 
0.058 | Cc1cc(I)ccc1Nc1c(C(=O)NOCCCO)cc(F)c(F)c1F [Example 100, 3,4,5-Trifluoro-N-(3-hydroxy-propoxy)-2-(4-iodo-2-methyl-phenylamino)-benzamide] |  | 
0.225 | O=C(NOCCCO)c1cc(F)c(F)c(F)c1Nc1ccc(I)cc1Cl [Example 101, 2-(2-Chloro-4-iodo-phenylamino)-3,4,5-trifluoro-N-(3-hydroxy-propoxy)-benzamide] |  | 
0.275 | Cc1cc(I)ccc1Nc1c(C(=O)NOCCCO)cc(Br)c(F)c1F [Example 102, 5-Bromo-3,4-difluoro-N-(3-hydroxy-propoxy)-2-(4-iodo-2-methyl-phenylamino)-benzamide] |  | 
0.487 | Cc1cc(I)ccc1Nc1c(C(=O)NOCCCO)ccc(F)c1F [Example 103, 3,4-Difluoro-N-(3-hydroxy-propoxy)-2-(4-iodo-2-methyl-phenylamino)-benzamide] |  | 
